Reference: ChEMBL document CHEMBL1201862, “PubChem BioAssay data set” (2004)
Active and inactive are the calls of the source.

Legend:
[1] = molecular target: Induced myeloid leukemia cell differentiation protein Mcl-1 (Homo sapiens, UniProt Q07820); type: functional
[2] = Trypanosoma cruzi growth suppression in host cells – NIH3T3 host cells, beta-gal luminescence, confirmation (AID 2044); type: functional, cell-based;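 also: intracellular parasites grown in NIH/3T3 mouse fibroblasts as host cells; luminescent beta-galactosidase reporter signal from transgenic T. cruzi replicating inside host cells; inhibitors lower the luminescence signal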
[3] = NIH3T3 cell viability loss – ATP luminescence, mouse fibroblasts, counter-screen, dose response (AID 2010); type: functional, cell-based;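 also: cells exposed to compound for about 90 hours before reading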
[4] = molecular target: Peroxisome proliferator-activated receptor gamma/Nuclear receptor corepressor 2 (Homo sapiens, UniProt P37231+Q9Y618); test: Counterscreen for NR2E3 inverse agonists: TR-FRET-based biochemical high throughput dose response assay to identify inverse agonists of the interaction between peroxisome proliferator-activated receptor gamma (PPARg) and nuclear receptor co-repressor 2 (NCOR2).; type: functional
Sequence of Peroxisome proliferator-activated receptor gamma/Nuclear receptor corepressor 2 (P37231 whole entry): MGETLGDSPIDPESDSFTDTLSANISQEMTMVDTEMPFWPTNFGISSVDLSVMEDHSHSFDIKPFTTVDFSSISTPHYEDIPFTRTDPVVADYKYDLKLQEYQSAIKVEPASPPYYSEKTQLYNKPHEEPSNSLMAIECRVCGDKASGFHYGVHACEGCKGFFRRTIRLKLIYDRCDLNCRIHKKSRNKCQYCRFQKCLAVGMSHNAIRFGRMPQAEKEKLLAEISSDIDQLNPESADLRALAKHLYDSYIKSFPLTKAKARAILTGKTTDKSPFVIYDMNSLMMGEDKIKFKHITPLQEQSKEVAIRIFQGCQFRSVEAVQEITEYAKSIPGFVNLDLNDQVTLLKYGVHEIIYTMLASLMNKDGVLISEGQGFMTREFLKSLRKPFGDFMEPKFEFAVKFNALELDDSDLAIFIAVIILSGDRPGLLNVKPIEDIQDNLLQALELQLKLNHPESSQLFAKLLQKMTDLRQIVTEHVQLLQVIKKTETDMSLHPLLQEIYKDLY
Sequence of Peroxisome proliferator-activated receptor gamma/Nuclear receptor corepressor 2 (Q9Y618 whole entry): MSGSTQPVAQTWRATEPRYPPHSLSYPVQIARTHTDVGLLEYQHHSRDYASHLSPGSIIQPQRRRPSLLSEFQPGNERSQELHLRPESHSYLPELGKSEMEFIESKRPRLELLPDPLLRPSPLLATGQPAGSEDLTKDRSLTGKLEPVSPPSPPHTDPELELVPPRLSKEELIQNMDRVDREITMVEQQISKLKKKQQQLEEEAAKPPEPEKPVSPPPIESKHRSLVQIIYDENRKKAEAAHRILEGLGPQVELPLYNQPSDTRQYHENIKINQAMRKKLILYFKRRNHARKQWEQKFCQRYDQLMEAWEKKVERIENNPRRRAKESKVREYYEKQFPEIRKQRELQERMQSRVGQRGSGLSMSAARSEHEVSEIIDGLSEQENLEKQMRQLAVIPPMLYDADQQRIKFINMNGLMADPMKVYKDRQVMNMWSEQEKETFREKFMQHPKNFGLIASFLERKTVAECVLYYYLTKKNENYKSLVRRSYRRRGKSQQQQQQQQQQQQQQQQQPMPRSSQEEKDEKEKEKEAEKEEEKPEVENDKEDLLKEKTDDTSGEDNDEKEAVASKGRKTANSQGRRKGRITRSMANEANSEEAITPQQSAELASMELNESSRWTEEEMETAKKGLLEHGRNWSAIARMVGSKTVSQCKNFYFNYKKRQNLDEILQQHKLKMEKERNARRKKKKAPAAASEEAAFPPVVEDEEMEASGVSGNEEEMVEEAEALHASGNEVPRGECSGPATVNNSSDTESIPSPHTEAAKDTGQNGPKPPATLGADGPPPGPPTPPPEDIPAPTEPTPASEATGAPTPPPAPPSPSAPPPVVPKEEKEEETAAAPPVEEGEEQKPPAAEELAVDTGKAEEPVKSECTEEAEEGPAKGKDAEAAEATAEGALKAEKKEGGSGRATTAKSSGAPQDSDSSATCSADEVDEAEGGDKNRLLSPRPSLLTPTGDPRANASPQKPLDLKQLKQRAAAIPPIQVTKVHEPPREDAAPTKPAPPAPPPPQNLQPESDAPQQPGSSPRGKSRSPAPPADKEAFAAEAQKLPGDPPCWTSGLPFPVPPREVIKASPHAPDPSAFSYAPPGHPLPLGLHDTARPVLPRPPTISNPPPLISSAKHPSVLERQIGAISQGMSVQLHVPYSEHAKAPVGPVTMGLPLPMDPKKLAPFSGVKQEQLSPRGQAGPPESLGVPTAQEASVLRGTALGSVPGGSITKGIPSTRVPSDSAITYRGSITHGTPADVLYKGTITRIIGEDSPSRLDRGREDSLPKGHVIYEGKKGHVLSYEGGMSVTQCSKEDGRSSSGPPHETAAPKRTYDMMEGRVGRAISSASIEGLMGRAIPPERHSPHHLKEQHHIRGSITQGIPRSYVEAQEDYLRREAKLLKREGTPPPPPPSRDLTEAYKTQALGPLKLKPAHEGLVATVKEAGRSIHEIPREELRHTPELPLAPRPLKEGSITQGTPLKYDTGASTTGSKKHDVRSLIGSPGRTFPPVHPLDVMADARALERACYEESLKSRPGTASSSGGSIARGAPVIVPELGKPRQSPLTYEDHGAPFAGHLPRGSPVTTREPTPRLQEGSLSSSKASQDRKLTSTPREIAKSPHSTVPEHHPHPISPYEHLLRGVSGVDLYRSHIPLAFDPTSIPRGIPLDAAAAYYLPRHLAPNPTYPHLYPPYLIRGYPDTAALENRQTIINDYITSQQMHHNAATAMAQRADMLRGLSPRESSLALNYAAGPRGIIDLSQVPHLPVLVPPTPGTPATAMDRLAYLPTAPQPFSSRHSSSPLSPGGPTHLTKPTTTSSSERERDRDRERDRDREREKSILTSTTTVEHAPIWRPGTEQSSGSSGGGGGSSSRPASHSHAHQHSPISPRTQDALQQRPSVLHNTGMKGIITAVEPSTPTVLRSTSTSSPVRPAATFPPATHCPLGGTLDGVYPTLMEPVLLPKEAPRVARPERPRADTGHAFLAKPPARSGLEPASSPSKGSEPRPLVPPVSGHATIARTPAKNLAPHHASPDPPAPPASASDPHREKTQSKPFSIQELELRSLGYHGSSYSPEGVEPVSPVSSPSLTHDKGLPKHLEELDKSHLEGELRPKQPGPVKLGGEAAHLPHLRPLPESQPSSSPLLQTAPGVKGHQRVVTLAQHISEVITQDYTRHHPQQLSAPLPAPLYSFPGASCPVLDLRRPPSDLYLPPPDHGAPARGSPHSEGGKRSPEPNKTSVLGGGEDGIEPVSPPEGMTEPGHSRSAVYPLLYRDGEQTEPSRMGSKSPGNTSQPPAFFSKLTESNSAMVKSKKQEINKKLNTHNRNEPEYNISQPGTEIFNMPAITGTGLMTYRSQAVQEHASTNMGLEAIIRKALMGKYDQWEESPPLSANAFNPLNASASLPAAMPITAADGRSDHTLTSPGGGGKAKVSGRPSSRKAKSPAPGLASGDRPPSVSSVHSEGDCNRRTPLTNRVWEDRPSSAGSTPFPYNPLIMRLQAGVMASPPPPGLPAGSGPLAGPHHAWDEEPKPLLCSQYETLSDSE

[5] = molecular target: Photoreceptor-specific nuclear receptor (Homo sapiens, UniProt Q9Y5X4); test: ligands suppressing NR2E3 nuclear receptor activity – biochemical, TR-FRET, dose response (AID 463256); type: functional
Sequence of Photoreceptor-specific nuclear receptor (Q9Y5X4 whole entry): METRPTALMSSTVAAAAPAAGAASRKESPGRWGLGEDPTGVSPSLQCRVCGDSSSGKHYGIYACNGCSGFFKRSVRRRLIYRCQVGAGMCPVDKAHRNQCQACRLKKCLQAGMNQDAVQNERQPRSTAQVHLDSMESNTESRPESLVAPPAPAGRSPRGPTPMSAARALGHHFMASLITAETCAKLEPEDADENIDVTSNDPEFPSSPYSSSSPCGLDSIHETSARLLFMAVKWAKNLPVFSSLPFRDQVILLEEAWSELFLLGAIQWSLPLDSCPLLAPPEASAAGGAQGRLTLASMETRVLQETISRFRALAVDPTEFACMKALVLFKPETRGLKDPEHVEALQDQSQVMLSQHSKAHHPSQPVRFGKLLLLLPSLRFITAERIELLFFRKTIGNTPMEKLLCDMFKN

[6] = decrease of insulin promoter-GFP reporter – imaging, high-content screening, mouse beta cells (AID 1628); type: functional; conditions: MIN6
[7] = MIN6 cell viability loss – mouse insulinoma, cytotoxicity control, dose response (AID 2122); type: functional;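 also: confirmatory high-throughput counterscreen run to flag cytotoxic compounds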
[8] = molecular target: T1, Sphingosine 1-phosphate receptor 4 (Homo sapiens, UniProt O95977); test: Fluorescence dose response cell-based high throughput screening assay for antagonists of the Sphingosine 1-Phosphate Receptor 4 (S1P4). [Related pubchem assays: 1524 (Confirmation in triplicates.), 1510 (Primary screen.)]; type: functional
T1 sequence (O95977 whole entry): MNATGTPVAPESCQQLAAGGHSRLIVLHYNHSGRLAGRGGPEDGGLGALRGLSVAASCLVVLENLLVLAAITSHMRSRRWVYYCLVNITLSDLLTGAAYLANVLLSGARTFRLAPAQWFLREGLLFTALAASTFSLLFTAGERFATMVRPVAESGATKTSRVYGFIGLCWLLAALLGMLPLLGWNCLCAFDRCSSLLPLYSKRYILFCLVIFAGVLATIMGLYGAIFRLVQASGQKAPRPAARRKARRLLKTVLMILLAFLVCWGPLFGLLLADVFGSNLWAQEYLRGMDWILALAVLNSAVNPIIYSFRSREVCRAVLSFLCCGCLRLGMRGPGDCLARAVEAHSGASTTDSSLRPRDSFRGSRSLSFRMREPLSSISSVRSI

[9] = molecular target: Sphingosine 1-phosphate receptor 1 (Homo sapiens, UniProt P21453); type: functional;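 also: Tango beta-arrestin reporter U2OS cells stimulated with S1P near its EC80; inhibitor potency meaning antagonism of receptor activation by the natural agonist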
[10] = reduction of Shn3 3'UTR-driven luciferase in osteoblasts – cell-based, Clone20 osteoblasts, firefly luciferase, cherry-picked, dose response (AID 624132); type: functional;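 also: firefly luciferase luminescence from reporter carrying the Shn3 3'UTR in osteoblasts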
[11] = loss of viability in HepG2 cells – cell-based, CellTiter-Glo, cherry-picked, cytotoxicity control for Shn3 inhibitor project, dose response (AID 624134); type: functional
[12] = non-specific 3'UTR reporter inhibition in Clone20-Shn3RL – cell-based, Renilla luciferase, cherry-picked, counter-screen for Shn3 inhibitor project, dose response (AID 624133); type: functional
Paired box protein Pax-8 = Paired box protein Pax-8 (Homo sapiens, UniProt Q06710); test: PAX8 transcriptional activity inhibition in RMG-I – RMG-I cells, luciferase, cherry-pick, dose response (AID 687027); type: functional, cell-based;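 also: luciferase reporter driven by Pax8 target thyroperoxidase promoter measured by SteadyGlo luminescence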
[13] = A549 cell cytotoxicity, dose response, cytotoxicity control, plate reader, cherry-pick, antagonist series (AID 743412); type: functional, cell-based
[14] = toxicity toward HepG2 liver cells – cell-based, plate reader, cherry-pick, antagonist series, cytotoxicity control, dose response (AID 743416); type: functional
[15] = blockers of bursicon-stimulated LGR2 cAMP reporter – cell-based, HEK293, CRE-luciferase reporter, cherry pick, set 2, dose response (AID 743343); type: functional;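 also: transfected cells were stimulated with diluted bursicon conditioned medium after compound addition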
[16] = blockade of melanocortin 4 receptor signaling – cell-based, plate reader, cherry pick, counter-screen for LGR2 antagonist project, dose response (AID 743444); type: functional;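 also: transfected HEK 293 cells stimulated with alpha-MSH peptide; potency of inhibitors of the alpha-MSH evoked signal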
[17] = viability loss in HEK293 cells – cell-based, plate reader, cherry-picked samples, cytotoxicity control, dose response (AID 743446); type: functional
[18] = molecular target: T2, Epstein-Barr nuclear antigen 1 (Epstein-Barr virus (strain B95-8) (HHV-4) (Human herpesvirus 4), UniProt P03211); test: inhibition of EBV nuclear antigen 1 DNA binding – biochemical, fluorescence polarization, 1536-well, dose response (AID 2381); design: species or system human gammaherpesvirus 4;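 also: fluorescence polarization of a Cy5 DNA probe bound by EBNA-1 protein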
T2 sequence (P03211 whole entry): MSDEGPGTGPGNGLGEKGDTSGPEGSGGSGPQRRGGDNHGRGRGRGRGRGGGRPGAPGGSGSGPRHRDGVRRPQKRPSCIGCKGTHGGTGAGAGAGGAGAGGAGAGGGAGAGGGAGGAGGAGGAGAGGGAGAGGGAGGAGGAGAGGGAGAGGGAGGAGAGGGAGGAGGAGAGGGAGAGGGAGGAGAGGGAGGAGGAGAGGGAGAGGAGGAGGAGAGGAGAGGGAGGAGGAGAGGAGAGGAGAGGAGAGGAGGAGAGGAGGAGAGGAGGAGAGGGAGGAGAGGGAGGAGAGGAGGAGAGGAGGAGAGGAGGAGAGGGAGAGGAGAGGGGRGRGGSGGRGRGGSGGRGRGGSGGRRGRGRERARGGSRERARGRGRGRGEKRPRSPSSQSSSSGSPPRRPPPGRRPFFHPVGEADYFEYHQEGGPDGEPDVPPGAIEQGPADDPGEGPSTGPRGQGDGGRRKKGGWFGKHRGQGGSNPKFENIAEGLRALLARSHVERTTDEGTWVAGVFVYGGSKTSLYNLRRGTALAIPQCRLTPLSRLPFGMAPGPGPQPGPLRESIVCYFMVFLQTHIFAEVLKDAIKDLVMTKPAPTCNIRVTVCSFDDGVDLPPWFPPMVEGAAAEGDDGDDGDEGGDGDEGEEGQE

[19] = molecular target: T3, Lytic switch protein BZLF1 (Epstein-Barr virus (strain B95-8) (HHV-4) (Human herpesvirus 4), UniProt P03206); test: inhibition of BZLF1 ZTA DNA binding – biochemical, fluorescence polarization, Epstein-Barr virus, 1536-well, counter-screen for EBNA-1 inhibitor project, dose response (AID 2377); design: species or system human gammaherpesvirus 4;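 also: fluorescence polarization of Cy5-labelled ZRE DNA probe bound by purified Zta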
T3 sequence (P03206 whole entry): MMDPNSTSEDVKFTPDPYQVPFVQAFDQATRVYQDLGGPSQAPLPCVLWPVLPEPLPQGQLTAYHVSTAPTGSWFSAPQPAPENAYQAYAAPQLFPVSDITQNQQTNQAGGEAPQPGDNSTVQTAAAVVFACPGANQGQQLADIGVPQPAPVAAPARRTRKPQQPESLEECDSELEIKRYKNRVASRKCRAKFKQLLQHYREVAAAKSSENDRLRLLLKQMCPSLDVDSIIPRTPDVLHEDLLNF

Estrogen receptor beta = Estrogen receptor beta (Homo sapiens, UniProt Q92731);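 also: recombinant ER-beta bound to coactivator SRC1 peptide in presence of estradiol agonist; inhibitors block coactivator peptide binding and lower the FRET signal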
Sequence of Estrogen receptor beta (Q92731 whole entry): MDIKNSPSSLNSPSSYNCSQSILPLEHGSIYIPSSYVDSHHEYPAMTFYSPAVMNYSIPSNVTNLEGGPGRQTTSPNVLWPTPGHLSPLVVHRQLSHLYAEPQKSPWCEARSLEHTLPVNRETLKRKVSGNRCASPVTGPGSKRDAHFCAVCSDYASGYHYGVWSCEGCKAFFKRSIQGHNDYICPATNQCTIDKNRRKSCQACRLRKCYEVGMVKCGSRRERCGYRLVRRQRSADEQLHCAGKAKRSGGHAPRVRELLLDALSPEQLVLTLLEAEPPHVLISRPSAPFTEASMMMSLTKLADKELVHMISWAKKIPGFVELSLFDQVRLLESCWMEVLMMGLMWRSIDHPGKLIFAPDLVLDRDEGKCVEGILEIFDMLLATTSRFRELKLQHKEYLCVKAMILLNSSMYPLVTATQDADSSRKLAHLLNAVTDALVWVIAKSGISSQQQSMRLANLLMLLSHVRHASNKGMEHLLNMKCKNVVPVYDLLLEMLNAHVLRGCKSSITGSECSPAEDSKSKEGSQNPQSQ

[20] = A cytotoxicity screen of small molecule inhibitors of the PhoP region in Salmonella typhi identified in the primary screen. [Related pubchem assays: 1850, 1864, 1985 ]; type: functional
Cytochrome P450 2C9 = Cytochrome P450 2C9 (Homo sapiens, UniProt P11712)
[21] = molecular target: Luciferin 4-monooxygenase (Photinus pyralis, UniProt P08659); test: inhibition of purified Photinus pyralis luciferase – biochemical, luminescence, dose response (AID 1891)
Sequence of Luciferin 4-monooxygenase (P08659 whole entry): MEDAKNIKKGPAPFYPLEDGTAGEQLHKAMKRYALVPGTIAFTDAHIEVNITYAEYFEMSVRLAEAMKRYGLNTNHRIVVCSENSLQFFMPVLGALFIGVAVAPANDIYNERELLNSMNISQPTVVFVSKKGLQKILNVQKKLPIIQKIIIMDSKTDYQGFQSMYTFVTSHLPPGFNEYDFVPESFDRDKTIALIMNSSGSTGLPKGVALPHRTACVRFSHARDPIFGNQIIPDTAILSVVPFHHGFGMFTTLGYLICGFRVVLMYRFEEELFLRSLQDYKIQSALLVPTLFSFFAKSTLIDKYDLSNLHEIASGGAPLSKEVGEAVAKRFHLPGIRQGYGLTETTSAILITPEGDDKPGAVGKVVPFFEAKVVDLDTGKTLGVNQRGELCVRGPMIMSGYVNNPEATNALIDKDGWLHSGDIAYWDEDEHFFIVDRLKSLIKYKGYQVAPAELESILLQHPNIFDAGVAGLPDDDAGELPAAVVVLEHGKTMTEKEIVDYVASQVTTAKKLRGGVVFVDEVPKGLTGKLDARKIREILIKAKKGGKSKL

[22] = Luminescence Cell-Based Dose Confirmation HTS to Identify Inhibitors of Platelet Dense Granule Release. [Related pubchem assays: 1663 (Primary HTS), 1678 (Summary of Project)]; type: functional
[23] = viability of PTEN-deleted HCT116 cells – cell-based, HCT116 PTEN knockout, dose response (AID 1047); type: functional;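 also: HCT116 colon tumor cells with PTEN knocked out; cells exposed to compound for 60 hours before readout; potency for loss of cell viability measured by luminescence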
[24] = viability of HCT116 lacking mutant beta-catenin – cell-based, human colon tumor, dose response (AID 1045); type: functional;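 also: HCT116 colon tumor cells with beta catenin knocked out; cells exposed to compound for 60 hours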
[25] = molecular target: T4, Ubiquitin carboxyl-terminal hydrolase BAP1 (Homo sapiens, UniProt Q92560); test: inhibition of BAP1 ubiquitin hydrolase activity – biochemical, dose response (AID 714); type: functional
T4 sequence (Q92560 whole entry): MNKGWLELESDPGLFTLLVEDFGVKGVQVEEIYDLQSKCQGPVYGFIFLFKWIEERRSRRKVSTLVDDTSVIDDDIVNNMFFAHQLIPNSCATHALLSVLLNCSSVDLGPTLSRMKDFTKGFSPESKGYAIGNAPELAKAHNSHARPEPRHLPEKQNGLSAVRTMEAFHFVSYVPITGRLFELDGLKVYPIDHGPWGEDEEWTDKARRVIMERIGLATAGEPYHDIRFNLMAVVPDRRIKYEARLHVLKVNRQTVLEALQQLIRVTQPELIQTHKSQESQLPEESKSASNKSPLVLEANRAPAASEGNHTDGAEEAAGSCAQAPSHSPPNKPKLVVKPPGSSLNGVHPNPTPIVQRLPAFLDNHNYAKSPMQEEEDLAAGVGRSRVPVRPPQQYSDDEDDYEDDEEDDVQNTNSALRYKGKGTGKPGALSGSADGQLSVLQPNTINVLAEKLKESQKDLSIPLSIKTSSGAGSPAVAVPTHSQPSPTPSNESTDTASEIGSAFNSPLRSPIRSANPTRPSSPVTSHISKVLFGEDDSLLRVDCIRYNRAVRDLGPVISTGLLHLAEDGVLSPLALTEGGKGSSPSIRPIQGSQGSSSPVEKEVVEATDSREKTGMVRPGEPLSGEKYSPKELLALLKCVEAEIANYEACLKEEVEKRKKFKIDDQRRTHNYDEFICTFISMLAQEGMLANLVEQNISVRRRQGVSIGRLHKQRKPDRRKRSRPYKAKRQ

Sequence of Induced myeloid leukemia cell differentiation protein Mcl-1 (Q07820 whole entry): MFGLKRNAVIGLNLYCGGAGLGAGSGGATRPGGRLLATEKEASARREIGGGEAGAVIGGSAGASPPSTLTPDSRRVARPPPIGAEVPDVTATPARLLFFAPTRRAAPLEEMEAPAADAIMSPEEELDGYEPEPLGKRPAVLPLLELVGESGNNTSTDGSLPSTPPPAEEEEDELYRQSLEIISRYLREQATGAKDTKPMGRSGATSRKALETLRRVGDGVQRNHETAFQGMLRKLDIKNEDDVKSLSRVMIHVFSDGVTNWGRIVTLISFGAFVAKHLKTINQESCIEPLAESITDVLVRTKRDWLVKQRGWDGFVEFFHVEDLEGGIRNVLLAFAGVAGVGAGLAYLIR

CCN(c1ccc(NC(=O)COC(=O)c2ccc(C)c(S(=O)(=O)N3CCOCC3)c2)cc1)C(C)C
IC50 [1]: 1.67 µM (not active)

CC(=O)N(Cc1cccnc1)c1cccc(-c2nc3ccccc3s2)c1
EC50 [2]: < 0.1 µM (active)
EC50 [3]: > 60 µM (not active)
EC50 (cells): 0.078 µM (active)

COc1ccc(-c2nn3c(-c4ccc(F)cc4)nnc3s2)cc1
IC50 [4]: > 39.8 µM (not active)
IC50 [5]: > 39.8 µM (not active)

COc1ccc(-n2ncc(Cl)c(Cl)c2=O)cc1
IC50 [6]: 1.56 µM (active)
IC50 [7]: 1.11 µM (active)
EC50 [2]: 1.59 µM (active)
EC50 [3]: 2.03 µM (active)
IC50 [8]: 2.09 µM (active)
IC50 [9]: 21.6 µM (not active)
AC50 [10]: 3.36 µM (active)
AC50 [11]: 32.9 µM (active)
AC50 [12]: 8.07 µM (active)
AC50 (Paired box protein Pax-8): 5.62 µM (active)
AC50 [13]: 10.8 µM (active)
AC50 [14]: 8.23 µM (active)
AC50 [15]: 20.2 µM (active)
AC50 [16]: 26.5 µM (active)
AC50 [17]: 7.88 µM (active)

COCCOC(=O)c1c(NC(=O)COC(=O)Cc2cccc(OC)c2)sc(C(N)=O)c1C
IC50 [18]: > 5.47 µM (active)
IC50 [19]: > 111 µM (not active)

Cc1ccc(CCNS(=O)(=O)c2c[nH]cn2)cc1
IC50 (Estrogen receptor beta): > 50 µM (not active)

COc1ccc(C(=O)Nc2ccc(NC(=O)c3cccs3)cn2)cc1
IC50 [4]: 7.65 µM (active)
IC50 [5]: 7.18 µM (active)

COc1cccc(/C=N/NC(=O)CO/N=C(\C)c2cccs2)c1OC
EC50 [20]: > 50 µM (active)
AC50 (Cytochrome P450 2C9): 39.8 µM (inconclusive)

Cc1ccsc1C(=O)C1CCCN(Cc2cnc(N3CCCC3)s2)C1 (stereo unspecified)
EC50 [2]: < 0.1 µM (active)
EC50 [3]: > 60 µM (not active)
EC50 (cells): 0.137 µM (active)

COc1ccccc1NC(=O)C(=O)N/N=C/c1ccc([N+](=O)[O-])s1
EC50 [2]: 0.858 µM (active)
EC50 [3]: > 60 µM (not active)
IC50 [1]: 2.56 µM (active)

COc1ccc(N2CC(=O)C(c3nc4ccccc4s3)=C2N)cc1
IC50 [18]: 11.2 µM (not active)
IC50 [19]: > 111 µM (not active)

O=C(CSC1=NCCS1)Nc1nc2c(s1)CCCC2
EC50 [20]: > 50 µM (active)

C(=C\c1ccco1)/c1ccc2ccccc2n1
EC50 [21]: 4.25 µM (active)
EC50 [22]: 15.2 µM (active)
IC50 [1]: 9.47 µM (active)

CCCCN(CC)CCCNC(=O)C1CCN(c2ncnc3c2sc2cccc(F)c23)CC1
EC50 [2]: < 0.1 µM (active)
EC50 [3]: > 30 µM (not active)
EC50 (cells): 0.294 µM (active)

O=C(Nc1ccc2ccccc2c1)Nc1ccc2snnc2c1
IC50 [18]: 10.1 µM (not active)
EC50 [2]: 1.94 µM (active)
EC50 [23]: 14.9 µM (active)
IC50 [19]: > 111 µM (not active)
EC50 [3]: > 60 µM (not active)
EC50 [24]: 15.9 µM (active)

CCCCNC(=O)c1cnc2ccc(S(=O)(=O)Nc3ccc(OCC)cc3)cc2c1O
IC50 [25]: > 50 µM (not active)

CCCO/C(O)=C1\C(C)=NC2=C(C(=O)CCC2)C1c1cccc(OC)c1OC (stereo unspecified)
IC50 [25]: 33.9 µM (not active)

COc1ccc(CNS(=O)(=O)c2ccc(S(=O)(=O)N3CCCCC3)cc2)cc1
IC50 [25]: > 50 µM (not active)

O=C(CSc1ccc(-c2cccs2)nn1)N1CCCCC1
IC50 [4]: 8.03 µM (active)
IC50 [5]: 2.64 µM (active)

CCN1C(=O)N/C(=C/c2cc(C)n(Cc3ccccc3)c2C)C1=O
EC50 [20]: > 50 µM (active)

O=C(Nc1nnc(C2CCCO2)s1)c1ccc(Br)cc1 (stereo unspecified)
IC50 (Estrogen receptor beta): > 50 µM (not active)
